Tested on: 958667-338-R-J2-PDC tumor spheroids viability
Assay: Anticancer human tumor 958667-338-R-J2-PDC patient-derived colon adenocarcinoma cell line growth inhibition [PI3K]
Settings: spheroids with HUVEC and MSC; for IC50: curve of first compound; for viability, T/C: stronger effect = lower value
In short: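 Three cell types, namely tumor cells, endothelial cells and mesenchymal stem cells, formed each spheroid. Combinations with four PI3K inhibitors were screened at clinically achievable concentrations decreasing by half-log, and spheroid viability was recorded.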

[1] = second compound 0.00316 µM, first compound 0.0316 µM
[2] = second compound 0.00316 µM, first compound 0.1 µM
[3] = second compound 0.00316 µM, first compound 0.316 µM
[4] = second compound 0.00316 µM, first compound 1 µM
[5] = second compound 0.00316 µM, first compound 3.16 µM
[6] = second compound 0.00316 µM, first compound 10 µM
[7] = second compound 0.01 µM, first compound 0.0316 µM
[8] = second compound 0.01 µM, first compound 0.1 µM
[9] = second compound 0.01 µM, first compound 0.316 µM
[10] = second compound 0.01 µM, first compound 1 µM
[11] = second compound 0.01 µM, first compound 3.16 µM
[12] = second compound 0.01 µM, first compound 10 µM
[13] = second compound 0.0316 µM, first compound 0.0316 µM
[14] = second compound 0.0316 µM, first compound 0.1 µM
[15] = second compound 0.0316 µM, first compound 0.316 µM
[16] = second compound 0.0316 µM, first compound 1 µM
[17] = second compound 0.0316 µM, first compound 3.16 µM
[18] = second compound 0.0316 µM, first compound 10 µM
[19] = second compound 0.1 µM, first compound 0.0316 µM
[20] = second compound 0.1 µM, first compound 0.1 µM
[21] = second compound 0.1 µM, first compound 0.316 µM
[22] = second compound 0.1 µM, first compound 1 µM
[23] = second compound 0.1 µM, first compound 3.16 µM
[24] = second compound 0.1 µM, first compound 10 µM
[25] = second compound 0.316 µM, first compound 0.0316 µM
[26] = second compound 0.316 µM, first compound 0.1 µM
[27] = second compound 0.316 µM, first compound 0.316 µM
[28] = second compound 0.316 µM, first compound 1 µM
[29] = second compound 0.316 µM, first compound 3.16 µM
[30] = second compound 0.316 µM, first compound 10 µM
[31] = second compound 1 µM, first compound 0.0316 µM
[32] = second compound 1 µM, first compound 0.1 µM
[33] = second compound 1 µM, first compound 0.316 µM
[34] = second compound 1 µM, first compound 1 µM
[35] = second compound 1 µM, first compound 3.16 µM
[36] = second compound 1 µM, first compound 10 µM
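Also: spheroids exposed to compounds for seven days before readout.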

Structure (SMILES): C=CC(=O)N1CCN(c2nc(=O)n(-c3c(C)ccnc3C(C)C)c3nc(-c4c(O)cccc4F)c(F)cc23)C(C)C1 (stereo not drawn) + CC(Nc1ccc2c(c1)OCCn1cc(N3C(=O)OCC3C(F)F)nc1-2)C(N)=O
- IC50 (second compound 0.00316 µM): > 10 µM
- IC50 (second compound 0.01 µM): > 10 µM
- IC50 (second compound 0.0316 µM): > 10 µM
- IC50 (second compound 0.1 µM): > 10 µM
- IC50 (second compound 0.316 µM): > 10 µM
- IC50 (second compound 1 µM): > 10 µM
- viability, T/C [1]: 85.9%
- viability, T/C [2]: 112%
- viability, T/C [3]: 82.4%
- viability, T/C [4]: 112%
- viability, T/C [5]: 101%
- viability, T/C [6]: 111%
- viability, T/C [7]: 88.2%
- viability, T/C [8]: 100%
- viability, T/C [9]: 101%
- viability, T/C [10]: 102%
- viability, T/C [11]: 115%
- viability, T/C [12]: 94.5%
- viability, T/C [13]: 87.3%
- viability, T/C [14]: 96.4%
- viability, T/C [15]: 88%
- viability, T/C [16]: 87.3%
- viability, T/C [17]: 89.7%
- viability, T/C [18]: 98.3%
- viability, T/C [19]: 80.5%
- viability, T/C [20]: 88.8%
- viability, T/C [21]: 101%
- viability, T/C [22]: 86.3%
- viability, T/C [23]: 96.7%
- viability, T/C [24]: 99.3%
- viability, T/C [25]: 58.2%
- viability, T/C [26]: 62.7%
- viability, T/C [27]: 65.2%
- viability, T/C [28]: 75.2%
- viability, T/C [29]: 72.4%
- viability, T/C [30]: 70.7%
- viability, T/C [31]: 57.2%
- viability, T/C [32]: 55.2%
- viability, T/C [33]: 75.1%
- viability, T/C [34]: 62.2%
- viability, T/C [35]: 61.3%
- viability, T/C [36]: 60.4%

Structure (SMILES): Cn1ncc(Cl)c1-c1cc(C(=O)NC(CN)Cc2cccc(F)c2)sc1Cl (stereo not drawn) + CC(Nc1ccc2c(c1)OCCn1cc(N3C(=O)OCC3C(F)F)nc1-2)C(N)=O
- IC50 (second compound 0.00316 µM): 3.02 µM
- IC50 (second compound 0.01 µM): 2.35 µM
- IC50 (second compound 0.0316 µM): 2.71 µM
- IC50 (second compound 0.1 µM): 1.95 µM
- IC50 (second compound 0.316 µM): 0.944 µM
- IC50 (second compound 1 µM): < 0.0316 µM
- viability, T/C [1]: 98.9%
- viability, T/C [2]: 94.4%
- viability, T/C [3]: 96.2%
- viability, T/C [4]: 76.3%
- viability, T/C [5]: 49.4%
- viability, T/C [6]: 41.6%
- viability, T/C [7]: 109%
- viability, T/C [8]: 104%
- viability, T/C [9]: 104%
- viability, T/C [10]: 75%
- viability, T/C [11]: 41.8%
- viability, T/C [12]: 27.7%
- viability, T/C [13]: 106%
- viability, T/C [14]: 91.2%
- viability, T/C [15]: 94.2%
- viability, T/C [16]: 85.8%
- viability, T/C [17]: 44.3%
- viability, T/C [18]: 29.5%
- viability, T/C [19]: 95.8%
- viability, T/C [20]: 89%
- viability, T/C [21]: 79.4%
- viability, T/C [22]: 65.7%
- viability, T/C [23]: 38.4%
- viability, T/C [24]: 25.6%
- viability, T/C [25]: 54.1%
- viability, T/C [26]: 79.6%
- viability, T/C [27]: 63%
- viability, T/C [28]: 48.5%
- viability, T/C [29]: 31.8%
- viability, T/C [30]: 24.9%
- viability, T/C [31]: 46.1%
- viability, T/C [32]: 54.1%
- viability, T/C [33]: 45.1%
- viability, T/C [34]: 46%
- viability, T/C [35]: 31.2%
- viability, T/C [36]: 20.8%

Structure (SMILES): Cn1nccc1Nc1nccc(-c2ccn(C(CO)c3ccc(Cl)c(F)c3)c(=O)c2)n1 (stereo not drawn) + CC(Nc1ccc2c(c1)OCCn1cc(N3C(=O)OCC3C(F)F)nc1-2)C(N)=O
- IC50 (second compound 0.00316 µM): > 10 µM
- IC50 (second compound 0.01 µM): 9.95 µM
- IC50 (second compound 0.0316 µM): > 10 µM
- IC50 (second compound 0.1 µM): 6.57 µM
- IC50 (second compound 0.316 µM): 2.11 µM
- IC50 (second compound 1 µM): 2.14 µM
- viability, T/C [1]: 91.7%
- viability, T/C [2]: 81.7%
- viability, T/C [3]: 112%
- viability, T/C [4]: 104%
- viability, T/C [5]: 78.7%
- viability, T/C [6]: 69.7%
- viability, T/C [7]: 108%
- viability, T/C [8]: 104%
- viability, T/C [9]: 105%
- viability, T/C [10]: 102%
- viability, T/C [11]: 75.8%
- viability, T/C [12]: 49.9%
- viability, T/C [13]: 101%
- viability, T/C [14]: 86.4%
- viability, T/C [15]: 92.4%
- viability, T/C [16]: 104%
- viability, T/C [17]: 75.7%
- viability, T/C [18]: 74.3%
- viability, T/C [19]: 102%
- viability, T/C [20]: 77.5%
- viability, T/C [21]: 102%
- viability, T/C [22]: 90.1%
- viability, T/C [23]: 87.4%
- viability, T/C [24]: 28.6%
- viability, T/C [25]: 81.5%
- viability, T/C [26]: 88.9%
- viability, T/C [27]: 86%
- viability, T/C [28]: 64.6%
- viability, T/C [29]: 41.9%
- viability, T/C [30]: 16.9%
- viability, T/C [31]: 67%
- viability, T/C [32]: 64%
- viability, T/C [33]: 70.6%
- viability, T/C [34]: 53.6%
- viability, T/C [35]: 47.6%
- viability, T/C [36]: 6.4%

Structure (SMILES): Cn1ncnc1[C@H]1c2n[nH]c(=O)c3cc(F)cc(c23)N[C@@H]1c1ccc(F)cc1 + CC(Nc1ccc2c(c1)OCCn1cc(N3C(=O)OCC3C(F)F)nc1-2)C(N)=O
- IC50 (second compound 0.00316 µM): > 0.1 µM
- IC50 (second compound 0.01 µM): > 0.1 µM
- IC50 (second compound 0.0316 µM): > 0.1 µM
- IC50 (second compound 0.1 µM): > 0.1 µM
- IC50 (second compound 0.316 µM): > 0.1 µM
- IC50 (second compound 1 µM): > 0.1 µM
- viability, T/C (second compound 0.00316 µM, first compound 0.000316 µM): 111%
- viability, T/C (second compound 0.00316 µM, first compound 0.001 µM): 107%
- viability, T/C (second compound 0.00316 µM, first compound 0.00316 µM): 105%
- viability, T/C (second compound 0.00316 µM, first compound 0.01 µM): 101%
- viability, T/C [1]: 112%
- viability, T/C [2]: 95.9%
- viability, T/C (second compound 0.01 µM, first compound 0.000316 µM): 93.8%
- viability, T/C (second compound 0.01 µM, first compound 0.001 µM): 87.4%
- viability, T/C (second compound 0.01 µM, first compound 0.00316 µM): 88.5%
- viability, T/C (second compound 0.01 µM, first compound 0.01 µM): 117%
- viability, T/C [7]: 85.7%
- viability, T/C [8]: 114%
- viability, T/C (second compound 0.0316 µM, first compound 0.000316 µM): 82.8%
- viability, T/C (second compound 0.0316 µM, first compound 0.001 µM): 95.9%
- viability, T/C (second compound 0.0316 µM, first compound 0.00316 µM): 77.7%
- viability, T/C (second compound 0.0316 µM, first compound 0.01 µM): 89.3%
- viability, T/C [13]: 95.2%
- viability, T/C [14]: 81.6%
- viability, T/C (second compound 0.1 µM, first compound 0.000316 µM): 104%
- viability, T/C (second compound 0.1 µM, first compound 0.001 µM): 82.4%
- viability, T/C (second compound 0.1 µM, first compound 0.00316 µM): 82.4%
- viability, T/C (second compound 0.1 µM, first compound 0.01 µM): 80.8%
- viability, T/C [19]: 88.4%
- viability, T/C [20]: 74.7%
- viability, T/C (second compound 0.316 µM, first compound 0.000316 µM): 68.3%
- viability, T/C (second compound 0.316 µM, first compound 0.001 µM): 65.2%
- viability, T/C (second compound 0.316 µM, first compound 0.00316 µM): 75.5%
- viability, T/C (second compound 0.316 µM, first compound 0.01 µM): 59.7%
- viability, T/C [25]: 60.6%
- viability, T/C [26]: 68.4%
- viability, T/C (second compound 1 µM, first compound 0.000316 µM): 65.7%
- viability, T/C (second compound 1 µM, first compound 0.001 µM): 50.8%
- viability, T/C (second compound 1 µM, first compound 0.00316 µM): 61.6%
- viability, T/C (second compound 1 µM, first compound 0.01 µM): 62.7%
- viability, T/C [31]: 68.8%
- viability, T/C [32]: 55.7%
